The values that follow come from ChEMBL document CHEMBL6115028, “An Amazing 30-Year Journey around the DABO Family: A Medicinal Chemistry Lesson on a Versatile Class of Non-nucleoside HIV-1 Reverse Transcriptase Inhibitors” (J Med Chem, 2025).

SMILES strings stand for the structures.

In data set [1] the target is Human immunodeficiency virus type 1 reverse transcriptase (Human immunodeficiency virus 1, UniProt Q72547). Put plainly: Inhibition of wild type HIV-1 Reverse transcriptase.
Data set [2] relates to MT4. Put plainly: Cytotoxicity against human MT4 cells assessed as reduction in cell growth after 5 days by MTT assay. It counts as functional. The conditions noted are these: MT4, 120 h, time 5 day. For orientation: Tetrazolium dyes change colour on reduction, which living cells bring about.
The subject of data set [3] is Human immunodeficiency virus 1. Put plainly: Antiviral activity against wild-type HIV-1 IIIB infected in human MT4 cells assessed as reduction in virus-induced cytopathic effect incubated for 5 days by MTT assay. It counts as functional, organism-based. To be noted: Human immunodeficiency virus 1, IIIB, MT4, 120 h. Background: Cytopathic effects are the visible damage that an infection or toxin causes in cultured cells.

Data set [4] deals with T1, Reverse transcriptase (Human immunodeficiency virus 1, UniProt Q9WKE8, K103N). Put plainly: Binding affinity to HIV-1 reverse transcriptase K103N mutant assessed as inhibition constant.
Data set [5] has as its system Human immunodeficiency virus 1. Description: Antiviral activity against wild type HIV-1 NL4-3 infected in human MT4 cells assessed as reduction in viral replication measured for 72 hrs by ELISA analysis. The data set is classed as functional, organism-based. To be noted: Human immunodeficiency virus 1, NL4-3, MT4, 72 h.
The nature of data set [6]: Binding affinity to HIV-1 reverse transcriptase Y181L mutant assessed as inhibition constant. Also on record: species or system Human immunodeficiency virus 1.
Data set [7] deals with Human immunodeficiency virus 1. Description: Antiviral activity against HIV-1 NL4-3 harboring infected Y188L mutant infected in human MT4 cells assessed as reduction in viral replication. It counts as functional, organism-based. To be noted: Human immunodeficiency virus 1, NL4-3, MT4.
In data set [8] the test system is Human immunodeficiency virus 1. Put plainly: Antiviral activity against HIV-1 NL4-3 harboring infected K103N mutant infected in human MT4 cells assessed as reduction in viral replication. It counts as functional, organism-based. To be noted: Human immunodeficiency virus 1, NL4-3, MT4.
Data set [9] has as its system Human immunodeficiency virus 1. Put plainly: Antiviral activity against HIV-1 NL4-3 harboring infected Y181C mutant infected in human MT4 cells assessed as reduction in viral replication. It counts as functional, organism-based. To be noted: Human immunodeficiency virus 1, NL4-3, MT4.
Data set [10] deals with Human immunodeficiency virus 1. Put plainly: Antiviral activity against wild type HIV-1 NL4-3 infected in human MT4 cells assessed as reduction in viral replication. The data set is classed as functional, organism-based. To be noted: Human immunodeficiency virus 1, NL4-3, MT4; read-out: EC50.
For data set [11], the target named is T1, Reverse transcriptase. Description: Inhibition of HIV-1 Reverse transcriptase K103N mutant.
Data set [12] relates to Human immunodeficiency virus 1. Description: Antiviral activity against wild type HIV-1 IIIB infected in human MT4 cells assessed as protection against virus-induced cytopathic effect incubated for 5 days by MTT assay. The data set is classed as functional. To be noted: Human immunodeficiency virus 1, IIIB, MT4, 120 h; time 5 day; read-out: ED50 (the source's name).
For data set [13], the system named is Human immunodeficiency virus 1. Description: Antiviral activity against HIV-1 3B infected in human MT4 cells assessed as reduction in viral replication incubated for 5 days by MTT assay. The data set is classed as functional, organism-based. To be noted: Human immunodeficiency virus 1, 3B, MT4, 120 h.
Data set [14] relates to MT4. Description: Cytotoxicity against human MT4 cells assessed as reduction in cell growth incubated for 5 days by MTT assay. The data set is classed as functional. The conditions noted are these: MT4, 120 h, time 5 day.
Data set [15] has as its system Human immunodeficiency virus 1. Put plainly: Antiviral activity against HIV-1 harboring protease V82F mutant infected in human C8166 cells assessed as inhibition of viral replication measured for 72 hrs by spectrophotometric MTT assay. The data set is classed as functional, organism-based. To be noted: Human immunodeficiency virus 1, C8166, 72 h.
Data set [16] in a line: Cytotoxicity against African green monkey Vero cells assessed as reduction in cell viability incubated for 72 hrs by MTT assay. It counts as toxicity, cell-based. The conditions noted are these: chlorocebus sabaeus.
Data set [17] deals with Human immunodeficiency virus 1. Put plainly: Antiviral activity against wild type HIV-1 IIIB infected in human MT4 cells assessed as protection against virus-induced cytopathic effect incubated for 72 hrs by MTT assay. It counts as functional, organism-based. The conditions noted are these: Human immunodeficiency virus 1, IIIB, MT4, 72 h.
Data set [18] relates to MT4. Put plainly: Cytotoxicity against human MT4 cells. The data set is classed as functional.
Data set [19] has as its system Human immunodeficiency virus 1. Put plainly: Antiviral activity against HIV-1 infected in human MT4 cells. It counts as functional, organism-based. To be noted: Human immunodeficiency virus 1, MT4.
A short description of data set [20]: Selectivity index, ratio of CC50 for human MT4 cells to EC50 for antiviral activity against HIV1 infected in human MT4 cells. It counts as toxicity, cell-based. The conditions noted are these: read-out: Ratio CC50/EC50.

Broadly, the IC50 is the point on the concentration scale where inhibition reaches its midpoint. What is called CC50 is the concentration at which the toxic effect on the cells reaches its halfway point. The term Ki denotes the equilibrium dissociation constant of an inhibitor or competing ligand from its target.

As to `CCCNc1nc(C(C)c2c(F)cccc2F)c(C)c(=O)[nH]1` (stereo not drawn), in [1], the IC50 was 30 nM. Besides, in data set [2], the CC50 is > 200 µM. Besides, in [3], the EC50 was 20 nM.

For the compound `CCN(C)c1nc(C(C)c2c(F)cccc2F)c(C)c(=O)[nH]1` (stereo not drawn), the results for the Ki in data set [4] and in data set [6] were 500 nM and 4000 nM, respectively. In addition, in [5], the EC50 turned out to be 3 nM.

Take `Cc1c(C(C)c2c(F)cccc2F)nc(N(C)C(C)C)[nH]c1=O` (stereo not drawn): the Ki in data set [4] amounted to 80 nM; in [6], 1190 nM. For the same compound, the EC50 in data set [5] worked out at 5 nM.

As to `COc1ccc(CN(C)c2nc(C(C)c3c(F)cccc3F)cc(=O)[nH]2)cc1` (stereo not drawn), the EC50 in [7] came to 10 nM; in data set [8], 3 nM; in data set [9], 1610 nM; in data set [10] it was 2 nM. It took 1050 nM to reach half-maximal inhibition in data set [11] (IC50).

Turning to `CCCN(C)c1nc(C(C)c2c(F)cccc2F)c(C)c(=O)[nH]1` (stereo not drawn), the Ki is 170 nM in data set [4] and 1430 nM in [6]. For the same compound, in [5], the EC50 was found to be 5 nM.

`CCOC1CSc2nc(=O)c(CC)c(Cc3cc(C)cc(C)c3)n21` (stereo not drawn): the EC50 in data set [12] was 700 nM.

For `CCC(C)Sc1nc(Cc2cc(C)cc(C)c2)c(Br)c(=O)[nH]1` (stereo not drawn), in data set [13], the EC50 came out at 6700 nM. Also, the CC50 in [14] was 153 µM.

As for `C=CCc1c(Cc2cc(C)cc(C)c2)nc(SCC2OCCC(C)O2)[nH]c1=O` (stereo not drawn), the EC50 in [13] amounted to 550 nM. Also, in [14], the 50% cytotoxic concentration (CC50) is > 100 µM.

As for `COc1ccc(CNc2nc(C(C)c3c(F)cccc3F)cc(=O)[nH]2)cc1` (stereo not drawn), the EC50 in data set [7] was > 5000 nM; in [8], 2230 nM; in [9] it was 60 nM; in data set [10], 3 nM. The same compound displayed a 50% inhibitory concentration (IC50) in [11] of 5000 nM.

Turning to `CSCSc1nc(Cc2c(F)cccc2Cl)cc(=O)[nH]1`, the EC50 in [15] was 400 nM. In addition, in data set [16], the CC50 at 72 h was found to be 55.3 µM.

Consider `COc1cccc(Sc2nc(Cc3cc(C)cc(C)c3)c(C)c(=O)[nH]2)c1`, for which the EC50 in data set [17] was 1600 nM. For the same compound, the cytotoxic concentration (CC50) in data set [18] was > 100 µM.

Take `CCc1c(Cc2cc(C)cc(C)c2)nc2n(c1=O)COCCS2`: in data set [12], the EC50 is 1600 nM.

Take `CSCSc1nc(Cc2c(Cl)cccc2Cl)cc(=O)[nH]1`: in data set [15], the EC50 is 1300 nM. The half-maximal cytotoxic concentration (CC50) at 72 h in data set [16] worked out at 48.1 µM.

For the compound `CCC(C)Sc1nc(Cc2cc(C)cc(C)c2)cc(=O)[nH]1` (stereo not drawn), the EC50 in [13] is 1200 nM. Also, in data set [14], the CC50 came out at 150 µM.

`Cc1c(C(C)c2c(F)cccc2F)nc(NC2CCCCC2)[nH]c1=O` (stereo not drawn): the IC50 in data set [1] amounted to 35 nM. Further, the CC50 in data set [2] stood at 90 µM. Moreover, in data set [3], the EC50 came to 20 nM.

For the compound `CSCCSc1nc(C2(c3c(F)cccc3F)CC2)c(C)c(=O)[nH]1`, in [19], the EC50 is 5 nM. Also, in data set [18], the CC50 was 14 µM. Moreover, the selectivity ratio in data set [20] worked out at 2330.

For `Cc1cc(C)cc(OCCSc2nc(Cc3ccccc3)cc(=O)[nH]2)c1`, the EC50 in data set [15] was 1300 nM. Also, in [16], the CC50 at 72 h amounted to 72.9 µM.

`CCCCNc1nc(Cc2c(F)cccc2F)c(C)c(=O)[nH]1`: in data set [2], the CC50 was determined as 70 µM. Moreover, the EC50 in [3] worked out at 6 nM.

Consider `CCc1c(Cc2cc(C)cc(C)c2)n2c(nc1=O)SCCOC2`, for which the EC50 in [12] was 600 nM.

Regarding `COc1ccc(C2CC2CNc2nc(C(C)c3c(F)cccc3F)cc(=O)[nH]2)cc1` (stereo not drawn), the EC50 is > 5000 nM in data set [7], 130 nM in data set [8], 100 nM in data set [9] and 1 nM in data set [10]. In addition, in data set [11], 880 nM corresponded to half-maximal inhibition (IC50).

As to `Cc1cc(C)cc(OCCSc2nc(Cc3c(F)cccc3F)cc(=O)[nH]2)c1`, in data set [15], the EC50 came out at 11200 nM. Also, the CC50 at 72 h in data set [16] was 90 µM.

With `Cc1c(Cc2c(F)cccc2F)nc(NC2CCCCC2)[nH]c1=O`, in data set [2], the CC50 was 200 µM. In addition, in data set [3], the EC50 worked out at 5 nM.

Regarding `Cc1cc(C)cc(Cc2nc(Sc3cccnc3)[nH]c(=O)c2C)c1`, the EC50 in [17] was determined as 1600 nM. In [18], this compound had a CC50 of 55 µM.
